Results taken from ChEMBL document CHEMBL5321216, “Discovery of bipyridine amide derivatives targeting pRXRα-PLK1 interaction for anticancer therapy” (Eur J Med Chem, 2023).
The source made the active and inactive calls. No cut-off for these calls is given here.

Key:
[1] = system: A549; assay: Antiproliferative activity against human A549 cells assessed as cell viability rate at 5 uM incubated for 72 hrs by MTT assay relative to control; format: functional
[2] = system: MCF7; assay: Antiproliferative activity against human MCF7 cells assessed as inhibition of cell proliferation incubated for 72 hrs by MTT assay; format: functional, cell-based; conditions: MCF7, 72 h
[3] = system: NCI-H460; assay: Antiproliferative activity against human NCI-H460 cells assessed as inhibition of cell proliferation incubated for 72 hrs by MTT assay; format: functional, cell-based; conditions: NCI-H460, 72 h
[4] = Cytotoxicity against HK-2 cells assessed as inhibition of cell proliferation incubated for 72 hrs by MTT assay; format: toxicity, cell-based; conditions: human
[5] = Selectivity index, ratio of IC50 for human NCI-H460 cells to IC50 for human MDA-MB-231 cells; format: functional
[6] = system: A549; assay: Induction of cell cycle arrest in RXRalpha knockout human A549 cells assessed as accumulation of cells at G2 phase at 125 nM incubated for 12 hrs by DAPI staining based flow cytometry analysis (reference value: 14.97%); format: functional
[7] = system: A549; assay: Induction of cell cycle arrest in wild type human A549 cells assessed as accumulation of cells at S phase at 125 nM incubated for 12 hrs by DAPI staining based flow cytometry analysis (reference value: 41.12 %); format: functional
[8] = system: MDA-MB-231; assay: Induction of apoptosis in human MDA-MB-231 cells assessed as increase in cleaved PARP expression at 125 nM by Western blot analysis; format: functional, cell-based; conditions: time 1-24 hrs, TDE = time-dependent effect
[9] = system: A549; assay: Induction of apoptosis in human A549 cells assessed as dead cells at 250 nM incubated for 24 hrs by annexin V-FITC/PI staining based flow cytometry analysis (reference value: 0.75%); format: functional
[10] = system: A549; assay: Induction of apoptosis in human A549 cells assessed as early apoptotic cells at 250 nM incubated for 24 hrs by annexin V-FITC/PI staining based flow cytometry analysis (reference value: 0.78%); format: functional
[11] = system: A549; assay: Induction of apoptosis in human A549 cells assessed as live cells at 250 nM incubated for 24 hrs by annexin V-FITC/PI staining based flow cytometry analysis (reference value: 93.2%); format: functional
[12] = system: A549; assay: Induction of apoptosis in human A549 cells assessed as early apoptotic cells at 125 nM incubated for 24 hrs by annexin V-FITC/PI staining based flow cytometry analysis (reference value: 0.78%); format: functional
[13] = biological target: T1, Retinoic acid receptor RXR-alpha (Homo sapiens) (UniProt P19793); assay: Antagonist activity at RXRalpha (unknown origin) transfected in human HeLa cells assessed as inhibition of CD3254- induced receptor transactivation incubated for 24 hrs by dual luciferase reporter assay; format: cell-based; conditions: filed as antagonist, dose 12.5-100 µM
T1 sequence (whole entry): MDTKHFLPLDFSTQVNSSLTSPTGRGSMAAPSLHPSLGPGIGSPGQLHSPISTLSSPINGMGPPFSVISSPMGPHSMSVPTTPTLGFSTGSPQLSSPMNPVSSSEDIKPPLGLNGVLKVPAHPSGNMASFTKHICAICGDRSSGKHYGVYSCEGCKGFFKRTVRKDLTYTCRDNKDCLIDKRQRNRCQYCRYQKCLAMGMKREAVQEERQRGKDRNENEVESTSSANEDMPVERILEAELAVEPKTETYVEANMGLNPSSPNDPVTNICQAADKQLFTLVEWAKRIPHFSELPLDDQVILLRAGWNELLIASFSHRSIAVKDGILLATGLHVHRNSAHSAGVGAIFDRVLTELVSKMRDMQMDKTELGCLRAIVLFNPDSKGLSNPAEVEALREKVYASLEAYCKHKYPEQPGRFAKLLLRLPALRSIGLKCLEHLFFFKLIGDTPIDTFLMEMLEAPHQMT

[14] = biological target: Nuclear receptor subfamily 4immunitygroup A member 1 (Homo sapiens) (UniProt P22736); assay: Antagonist activity at Nur77 (unknown origin) transfected in human HeLa cells at 31.25 uM incubated for 24 hrs by dual luciferase reporter assay; format: cell-based
[15] = system: MDA-MB-231; assay: Induction of cell cycle arrest in human MDA-MB-231 cells assessed as accumulation of cells at G2 phase at 15.625 nM incubated for 12 hrs by flow cytometry analysis (reference value: 15.91%); format: functional; conditions: 0.01562 µM
[16] = system: MDA-MB-231; assay: Induction of cell cycle arrest in human MDA-MB-231 cells assessed as accumulation of cells at S phase at 31.25 nM incubated for 12 hrs by flow cytometry analysis (reference value: 40.89%); format: functional
[17] = system: MDA-MB-231; assay: Induction of cell cycle arrest in human MDA-MB-231 cells assessed as accumulation of cells at S phase at 62.5 nM incubated for 12 hrs by flow cytometry analysis (reference value: 40.89%); format: functional
[18] = system: A549; assay: Induction of cell cycle arrest in human A549 cells assessed as accumulation of cells at G2 phase at 31.25 nM incubated for 12 hrs by flow cytometry analysis (reference value: 8.62%); format: functional
[19] = system: A549; assay: Induction of cell cycle arrest in human A549 cells assessed as accumulation of cells at S phase at 62.5 nM incubated for 12 hrs by flow cytometry analysis (reference value: 31.81%); format: functional
[20] = system: A549; assay: Antiproliferative activity against RXRalpha knockout human A549 cells assessed as inhibition of cell growth incubated for 72 hrs by MTT assay; format: functional, cell-based; conditions: A549, 72 h
[21] = AUC (0 to infinity) in Sprague-Dawley rat at 25 mg/kg, ip measured for 48 hrs by LC-MS/MS analysis; format: ADME, organism-based; design: time 48 hrs, dose 25 mg/kg, route ip; conditions: in vivo
[22] = Tmax in Sprague-Dawley rat at 25 mg/kg, ip measured for 48 hrs by LC-MS/MS analysis; format: ADME, organism-based; conditions: in vivo
[23] = Apparent volume of distribution during terminal phase in Sprague-Dawley rat at 25 mg/kg, ip measured for 48 hrs by LC-MS/MS analysis; format: ADME, organism-based; conditions: in vivo, read-out: Vz/F
[24] = system: MDA-MB-231; assay: Antitumor activity against human MDA-MB-231 cells xenografted in BALB/c nude mouse assessed as reduction in Ki67 protein expression at 25 mg/kg/day, ip administered for 15 days by immunohistochemical analysis; format: functional, organism-based; conditions: time 15.0 day
[25] = system: MDA-MB-231; assay: Antitumor activity against human MDA-MB-231 cells xenografted in BALB/c nude mouse assessed as inhibition of tumor growth by measuring chromosome aberrations at 12.5 to 25 mg/kg/day, ip administered for 15 days; format: functional, organism-based; conditions: dose 12.5-25 mg/kg/day, time 15.0 day
[26] = Toxicity in BALB/c mouse xenografted with human MDA-MB-231 cells assessed as heart damage at 25 mg/kg/day, ip administered for 15 days by H and E staining based analysis; format: organism-based; conditions: in vivo, 360 h, time 15 day
[27] = Toxicity in BALB/c mouse xenografted with human MDA-MB-231 cells assessed as liver damage at 25 mg/kg/day, ip administered for 15 days by H and E staining based analysis; format: organism-based; conditions: in vivo, 360 h, time 15 day
[28] = system: MDA-MB-231; assay: Upregulation of phosphorylated RXRalpha protein level in human MDA-MB-231 cells at 125 to 500 nM incubated for 24 hrs in presence of thermosensitive alkaline phosphatase by Western blot analysis; format: functional, cell-based; conditions: dose 125-500 nM
[29] = system: MDA-MB-231; assay: Induction of mitotic arrest in human MDA-MB-231 cells assessed as chromosome misalignment at 62.5 nM incubated for 12 hrs by alpha-tubulin/DAPI staining based confocal microscopic analysis; format: functional, cell-based

Nuclear receptor subfamily 4immunitygroup A member 1 (Homo sapiens), sequence (P22736 whole entry): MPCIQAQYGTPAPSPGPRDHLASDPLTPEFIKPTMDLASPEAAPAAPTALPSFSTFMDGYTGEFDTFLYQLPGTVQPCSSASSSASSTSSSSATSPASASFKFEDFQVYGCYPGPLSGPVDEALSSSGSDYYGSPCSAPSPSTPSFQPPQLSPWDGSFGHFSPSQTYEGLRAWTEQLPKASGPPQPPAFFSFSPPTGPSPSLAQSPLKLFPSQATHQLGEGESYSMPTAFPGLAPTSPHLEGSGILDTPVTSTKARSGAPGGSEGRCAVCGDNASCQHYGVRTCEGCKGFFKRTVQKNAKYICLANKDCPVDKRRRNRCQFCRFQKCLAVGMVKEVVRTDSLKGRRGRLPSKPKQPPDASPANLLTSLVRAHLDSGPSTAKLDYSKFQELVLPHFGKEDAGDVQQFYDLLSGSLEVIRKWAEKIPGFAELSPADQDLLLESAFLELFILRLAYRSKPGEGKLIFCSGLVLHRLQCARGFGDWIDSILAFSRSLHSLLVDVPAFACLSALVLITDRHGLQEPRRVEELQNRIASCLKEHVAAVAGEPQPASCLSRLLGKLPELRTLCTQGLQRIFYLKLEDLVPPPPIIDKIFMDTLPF

With `O=C(/C=C/c1ccccc1)Nc1cc(-c2ccnc(N3CCC(CO)CC3)c2)ccn1` the Activity [1] was 51.91%, the IC50 [2] was 2340 nM and the IC50 [3] was 253 nM. The IC50 at 72 h [4] was 372 nM, the “Ratio IC50” value [5] was 15.81 and the Activity [6] was 45.99%. The Activity [7] was 18.11%, the Activity [8] was “Tde” and the Activity [9] was 2.36%. For the same compound, the Activity [10] was 31.3%, the Activity [11] was 44.9% and the Activity [12] was 22.9%. The inhibition [13] was “Dose-Dependent Effect”, the Activity [14] was “inactive” and the Activity [15] was 15.75%. For the same compound, the Activity [16] was 30.34%, the Activity [17] was 16.51% and the Activity [18] was 8.76%. For the same compound, the Activity [19] was 27.68%, the IC50 [20] was 3.36 µM and the AUC(0-inf) [21] was 14600 ng·h/mL. For the same compound, the Tmax [22] was 8.4 min, the Vd/F [23] was 5.15 L/kg and the Activity [24] was “Active”. For the same compound, the Activity [25] was “Active”, the Activity [26] was “Non-Toxic” and the Activity [27] was “Non-Toxic”. The Activity [28] was “inactive” and the Activity [29] was “Active”.
